The values that follow come from patent US20030087830A1, “Low molecular weight components of cartilage, complexes of metals with amino acids, DI-peptides and analogs thereof; processes for preparation and therapeutic uses thereof” (priority 2001, published 2003).

The test system of series [1] is Endothelial cells (HUVEC, BAEC). Description: Endothelial cell proliferation. It counts as cell-based, human / bovine. As to conditions: 48 hours; copper equivalent; NA = less than 50% at 1.25 mM copper equivalent; read-out: EC proliferation (EC50 mM). On the procedure: (§1) Endothelial and tumor cell proliferation assays were performed to determine the ability of test samples to inhibit endothelial cell proliferation (antiangiogenic activity), normal cell proliferation,and tumor cell proliferation.
(§2) Endothelial cells (Human umbilical vein endothelial cells (HUVEC), bovine aortic endothelial cells (BAEC)), skeletal muscle cells, human dermal fibroblasts (all from Clonetics, Walkersville, Md.) were respectively maintained in EBM-2, MDEM, SKGM and FGFM-2 complete media according to manufacturer's instructions. Tumor rat glioblastoma cell line (C6) was maintained in DMEM (Sigma, Oaksville, Ontario) supplemented with 10% fetal calf serum (FCS) and antibiotics in 5% CO2. Briefly, cells seeded in 96-well sterile tissue culture dishes were treated with increasing concentrations of different test samples for a period of 48 hours at 37° C. Cell number was then evaluated by a calorimetric assay using the cell proliferation reagent tetrazolium salt and the fluorimetric assay using DNA dye (Hoescht) according to the procedure established by the manufacturer (Boehringer Mannhein). The conversion of these tetrazolium salts into formazan occurs only in metabolically active cells. The percentage of cell inhibition was determined by comparison to untreated cells.
(§3) According to the endothelial cell proliferation assay, the relative effectiveness of two compounds is compared by reference to the EC50 thereof. The EC50 is the concentration of compound at which the number of endothelial cells is reduced by 50% as compared to control. The efficacy of the test samples in EVT is established by the percent of eggs with altered angiogenesis at a given inhibitor dose of 0.6 mg of copper equivalent (see FIG. 6 for examples). A comparison of the antiangiogenic activity of the compounds of the present invention with divalent metal salts (CuCl2, MgCl2, ZnCl2, CoCl2) and uncoupled alpha-amino acids, alpha-imino acids, dipeptides, and nitrogenated molecules comprising a carboxylic acid group, such as creatine, is provided to illustrate that the formation of the amino acid-copper complex gives rise to complexes having antiangiogenic activity.

The subject of series [2] is blood vessel formation in the vitelline membrane of chick embryo. Description: Embryonic Vascularization Test (EVT). In kind it is in vivo. The protocol:
The Embryonic Vascularization Test (EVT) was performed to determine the ability of test samples to inhibit the formation of new blood vessels (antiangiogenic activity).
The normal development of a chick embryo involves the formation of an external vascular system located in the vitelline membrane which carries nutrients from the vitellus (yolk) to the developing embryo. When placed onto the vitelline membrane, antiangiogenic substances can inhibit the blood vessel formation that occurs in the vitelline membrane. Briefly, methylcellulose discs (an inert solid and transparent matrix) containing different test samples were placed on the external border of the vascular perimeter of the vitelline membrane, where the angiogenic process occurs. Vascularization was assessed 24 hours after disc deposition, and results were expressed as the percent of embryos in which blood vessel formation was affected. The blood vessel formation was considered affected when its growing path was either deviated, or diminished or when there was no growth observed beyond the disc as compared to the negative control. The results are expressed as 0, +, and ++ where 0 is for a lower response than 25 percent of the eggs; + is for a response between 25 and 50 percent; and ++ is for an antiangiogenic response observed in more than 50 percent of the eggs.
as §3

Series [3] concerns Striated muscle cells (skeletal muscle cells). The experiment in a line: Striated muscle cell proliferation. It counts as cell-based. As to conditions: 48 hours; free amino acids and Glu-Trp 2.5 mM, CuCl2 1.25 mM. On the procedure:
as §1, §2

For another series, the system named is Endothelial cells. Description: Endothelial cell tubule formation assay (tubulogenesis). In kind it is cell-based. Also on record: key to Tubulogenesis: 0: Numerous capillary-like tube forming pentagonal network; +: Decrease of capillary-like tubes; ++: Dramatic decrease of capillary-like tubes; +++: Absence of capillary-like tubes. On the procedure:
The endothelial cell tubule formation assay is a semi-quantitative assay that was performed to determine the ability of test samples to inhibit this multi-step process, which involves cell adhesion, migration, differentiation and growth, using a commercial kit (Chemicon). Briefly, endothelial cells were seeded on solid gel of Ecmatrix™ (Chemicon), basement proteins prepared from the Engelbreth Holm-Swarm (EHS) mouse tumor in microplate in a E-99 media (Sigma) supplemented with 5% FBS and VEGF (50 ng/ml) in the presence or absence of the test sample. Cells were incubated for a period of 24 hours at 37° C. Pictures were taken on the entire tissue culture dish using a binocular microscope for further evaluation.

Series [4] in a line: Affinity of the amino acid with copper. It counts as physicochemical.
Another series concerns human dermal fibroblasts. Description: Fibroblast proliferation. As to conditions: 48 hours; free amino acids and Glu-Trp 2.5 mM, CuCl2 1.25 mM. It counts as cell-based. On the procedure: as §1, §2
Series [5] relates to bFGF-stimulated blood vessel formation in Matrigel. Description: Matrigel in vivo angiogenesis assay. Also on record: species or system C57B1/6 mice. As to conditions: intra-peritoneal daily 10 days. The protocol: The Matrigel™ in vivo assay was performed to determine the ability of test samples to inhibit blood vessel formation (antiangiogenic activity) and to establish their bioavailability in vivo.
Briefly, liquid Matrigel™ (Becton Dickinson, Bedford, Mass.) was maintained at 4° C. and mixed thoroughly for at least 3 hours with 1,500 ng/ml basic fibroblast growth factor (bFGF) (R&D Systems, Minneapolis, Minn.) used as the primary angiogenic stimulus. The mixture (0.5 ml) was injected subcutaneously into the ventral midline of C57B1/6 mice, and treatment with different test samples or saline solution was initiated the same day. Additional animals were also injected with Matrigel™ containing no bFGF to serve as baseline controls. The animals were treated daily for a 10 day period (intra-peritonealy, 0.2 ml of each dose). At day 11, animals were injected with FITC-dextran 20 min prior to euthanizing treated mice. Matrigel™ gels were removed along with underlying peritoneum and prepared for FITC-dextran detection by fluorimetry. The concentration of FITC-dextran in the gels was calculated from a known concentration of FITC-dextran using a standard curve. The FITC-dextran content of the gels from compound-treated animals and controls was expressed as a percent of the positive bFGF-treated controls after the baseline control of FITC-dextran levels were subtracted from all groups.

In the case of L-Asp Cu L-Asp [Compound 6], the EC50 was found to be 0.29 mM in series [1] and 1.15 mM in the series on human dermal fibroblasts. Further, the “EVT (% of inhibition)” value in series [2] (0.6 mg copper equivalent, percent of embryos with affected blood vessel formation, 24 hours after disc deposition) was “±38% of inhibition”; in series [2] (activity at 0.6 mg equivalent Copper) it was “+ (+ between 25-50% of inhibition)”. Besides, the “Striated muscle (EC50 (mM))” value in series [3] is listed as “Non-active”. For the same substance, the “Tubulogenesis activity (in words)” value in the series on Endothelial cells was “important activity”. Further, in the series with Endothelial cells (1.25 mmole (equivalent copper), 24 hours), the “Tubulogenesis (in words)” value is “Decrease of capillary-like tube formation”. In addition, the Tubulogenesis entry with Endothelial cells (copper complexes, concentration not given, VEGF 50 ng/ml, 24 hours) was “+”. Further, the “Affinity of the AA with Cooper” value in series [4] came to 16.0. The “Matrigel in vivo % of inhibition” value was 27.7% of inhibition in series [5] (0.14 mg/Kg equivalent copper) and 22.6% of inhbition in series [5] (1.14 mg/Kg equivalent copper). Further, the “Matrigel in vivo % inhibition” value in series [5] (1.4 mg/Kg equivalent copper) amounted to 22.6%.
